Test results: US11472825B2, “Real-time fluorescence imaging sensor for measuring glutathione in organelle and preparation method therefor” (CELL2IN, INC., priority 2017, dated 2022)

Assays:
[1] = tested on: glutathione in the Golgi apparatus of HeLa cells; assay: High-throughput cell imaging of cells loaded with GolgiFreSH-tracer; type: cell-based
Procedure: 1-6. High-Throughput Cell Imaging
HeLa cells were cultured in DMEM (containing 10% heat-inactivated FBS (Hyclone), 100 U/ml of penicillin, 100 μg/ml of streptomycin sulfite and 2 mM glutamine and free of phenol red). HeLa cells were seeded in Greiner 96-well dishes (Sigma-Aldrich), and then cultured under the conditions of 37° C. and 5% CO2 for the indicated time. Before observation using a fluorescence microscope, the HeLa cells were incubated with a medium containing 10 μM of the GolgiFreSH-tracer for 0.5 to 1.5 hours. After washing twice with Hank's balanced salt solution, real-time images of the cells were acquired using an Operetta High-Content Imaging System (PerkinElmer). The imaging test was performed while the cells w ere incubated under the conditions of 37° C. and 5% CO2 in a chamber mounted in the microscope. The GolgiFreSH-tracer was excited with LED light at 410-430 nm and 490-510 nm, and the fluorescence of the tracer was detected through filters with 460-540 nm and 560-630 nm band intervals, respectively. BODIPY TR C5ceramide was excited with LED light at 560-580 nm, and the fluorescence thereof was detected through filters with 590-640 nm band intervals. Using the Harmony software, the experimental data were analyzed (see FIGS. 4, 5 and 8). […]

[2] = tested on: mitochondrial glutathione in HeLa cells; assay: Real-time imaging of living cells loaded with MitoFreSH-tracer (confocal, F510/F580 ratio); type: cell-based
Procedure: 1-5. Real-Time Imaging of Living Cells
HeLa cells were cultured in DMEM (containing 10% heat-inactivated FBS (Hyclone), 100 U/ml of penicillin, 100 μg/ml of streptomycin sulfate and 2 mM glutamine aid free of phenol red). HeLa cells were seeded in 35 mm cover glass bottom dishes (SPL Life Sciences), and then cultured under the conditions of 37° C. and 5% CO2 for foe indicated time. Before observation using a fluorescence microscope, the HeLa cells were incubated with 2 mL of a medium containing 10 μM of the FreSH-tracer-derived compound for 0.5 to 1.5 hours. After washing twice with PBS, real-time images of the cells were acquired using a Nikon A1 laser scanning confocal microscope. […] The FreSH-tracer-derived compound was excited with laser beams at 403 nm and 488 nm, and the fluorescence of the tracer-derived compound was detected through filters with 500-550 nm and 570-620 nm band intervals, respectively. Using NIS-Elements AR software, the experimental data were analyzed and the ratio of fluorescence was imaged (see FIGS. 4 and 5).
The present inventors have studied the applicability of the MitoFreSH-tracer to examination of changes in mitochondrial glutathione levels in living cells. […] The sensor fluorescence intensity ratio calculated from images of the living cells was reduced by treatment with diamide (FIGS. 4B and 4C). […]

Row | Molecule | fluorescence intensity ratio of GolgiFreSH-tracer in living cells ([1]; living cells treated with various concentrations of diamide) | sensor fluorescence intensity ratio of GolgiFreSH-tracer in living cells ([1]; sensor-loaded living cells, 1 mM diamide) | sensor fluorescence intensity ratio (F510/F580) of MitoFreSH-tracer in living cells ([2]; HeLa cells loaded with MitoFreSH-tracer, 0.5 mM diamide) | fluorescence intensity ratio of MitoFreSH-tracer in living cells ([2]; cells treated with antimycin A for 75 minutes, various concentrations)
1 | CN(C)C(=O)/N=N/C(=O)N(C)C [diamide, Diamide] | decreased depending on the concentration | reduced | reduced | 
2 | Antimycin A |  |  |  | decreased depending on the concentration
